Reference: US7670838B2, “Coupling of excitation and neurogenesis in neural stem/progenitor cells” (priority 2004, dated 2010)
“Also recorded” adds a separate entry of the source.

Legend:
[1] = system: adult hippocampal NPCs in vivo; assay: In vivo neurogenesis assay (BrdU labeling, hippocampus); parameters: species or system rat; conditions: for neuronal fraction of newborn cells: 1 mg/kg
[2] = rat, in vivo
[3] = system: adult rat hippocampal NPCs; assay: Neurogenesis from adult NPCs in living hippocampal coculture (MAP2ab); assay type: cell-based
Method: (§1) Stem cell coculture. […] Mitotic inhibitor FUDR (5-fluoro-2′-deoxyuridine) was included with uridine at 0.3 mM unless otherwise indicated at the start of the sixth day post-plating, after cell cycle exit and initiation of differentiation, to allow for long term culture (in some experiments 50 μM D-AP5 (RBI) was also included as noted in the text). Thereafter cultures were supplemented with NT3 to 20 ng/mL every 2-3 days until cocultures were 9-16 days old (control and experimental conditions were always conducted in parallel and therefore were age-matched at all times), at which point neurogenesis assays were performed.
(§2) Excitation of NPCs in coculture. […] Divalent cation concentration was maintained constant in external calcium variation experiments by replacement with equimolar magnesium. […] Persistent stimuli were used except where noted, to mimic areas of local persistent high activity and to avoid rebound or washoff effects. […] An advantage of using depolarization for these brief stimuli is that the logarithmic dependence of depolarization on extracellular potassium described by the Nernst equation obviates the need for extensive washing of the stimulated sample prior to reapplication of the control medium.
(§3) Immunocytochemistry and transfection. Cells were fixed in 4% formaldehyde (EM Sciences)/PBS for 20-30 min, washed 3×5 min in PBS/0.1 M glycine, permeabilized for 5 min in 0.1% Triton/PBS/3% BSA, washed 3×5 min in PBS/glycine, blocked for 1-2 hr in PBS/3% BSA, and incubated overnight at 4° C. in PBS/3%BSA/primary antibodies. Cells were then washed 3×5 min in PBS, incubated for 1 hr at 37° C. in PBS/3%BSA/secondary antibodies, washed 3×10 min in PBS, and mounted in Fluoromount (Electron Microscopy Sciences). TUNEL staining was performed with Apoptag Red (Serologicals). […] Cotransfections were carried out with Lipofectamine 2000 according to the manufacturer's instructions immediately after NPC plating. […] As with all experiments, stimulation or control conditions were initiated 24 hr after transfection on Day 1.
Confocal imaging and analysis. Images were acquired on a Zeiss LSM confocal microscope. Random fields containing GFP+ cells were selected for acquisition under GFP excitation without knowledge of experimental condition, and subsequently scanned using laser lines appropriate to excite the fluorophores corresponding to MAP2ab and other antigens. Data were analyzed using Metamorph software from Universal Imaging. […] Mean data from 12 independent experiments conducted with potassium depolarization were used as the reference point for effects of pharmacological interventions in coculture. For evaluation of proliferation and survival effects, daily cell counts as well as TUNEL and BrdU staining were performed in parallel stimulated and unstimulated cultures. BrdU was applied to cultures at 5 μM for 2 hr, and BrdU staining was conducted with a 20-30 min postfixation and subsequent incubation at 37° C. for 20-30 min in 1 N HCl. For Ca^2+ imaging, x-Rhod-1 AM (Molecular Probes) was loaded at 10 μM for 30 min at 37° C. into cells on the fixed coculture substrate 1-2 days after initiation of mitogen taper.

adult hippocampal NPCs = assay: Neurogenesis from adult NPCs on ethanol-fixed hippocampal substrate (MAP2ab); assay type: cell-based, rat; conditions: for neurogenesis with the agonist as stimulus: FPL 64176 5 μM, NMDA 50 μM
Method: Hippocampal cell culture. […] Tissue was treated with papain (20 U/ml) in 10 ml of this solution with additional (in mM) 1.7 cysteine, 1 CaCl2, and 0.5 EDTA for 45 min at 37° C. The digestion was stopped by replacing the solution with 10 ml of MEM/Earle's salts without L-glutamine along with 20 mM glucose, Serum Extender (1:1000), and 10% heat-inactivated fetal bovine serum containing 25 mg of bovine serum albumin (BSA) and 25 mg of trypsin inhibitor. The tissue was triturated in a small volume of this solution with a fire-polished Pasteur pipette, and ˜100,000 cells in 1 mL plated per coverslip in 24-well plates. Glass coverslips (pre-washed overnight in HCl followed by several 100% EtOH washes and flame sterilization) were coated overnight at 37° C. with 1:50 Matrigel (Collaborative Biomedical Products, Bedford, Mass.). Cells were plated in culture medium, Neurobasal containing 2× B-27 (Life Technologies) and 2 mM Glutamax-I (Life Technologies). […] For lightly fixed tissue experiments, stem/progenitor cells were plated after hippocampal cultures at 7 DIV were exposed to 70% EtOH at −20° C. for 30 min, then washed 2× in sterile PBS.
as §1, §2, §3
Confocal imaging and analysis. Images were acquired on a Zeiss LSM confocal microscope. Random fields containing GFP+ cells were selected for acquisition under GFP excitation without knowledge of experimental condition, and subsequently scanned using laser lines appropriate to excite the fluorophores corresponding to MAP2ab and other antigens. Data were analyzed using Metamorph software from Universal Imaging.

[4] = Tolerability of treatments in the in vivo neurogenesis assay; conditions: 4 mg/kg
[5] = system: voltage-activated Na+ current; assay type: cell-based, rat
[6] = system: adult rat hippocampal NPCs; assay: Miniature EPSC recording of NPC progeny in coculture; assay type: cell-based; conditions: living coculture
[7] = system: proliferating adult-derived NPCs; assay type: cell-based, rat; conditions: fixed substrate; x-Rhod-1
[8] = rats, 1 mg/kg for 1 week, 30 days after treatment
[9] = anti-mitotic agent added at day 1
[10] = adult rats, 4 mg/kg daily for 1 week, not statistically significant

Structure (SMILES): COC(=O)C1=C(C)NC(C)=C([N+](=O)[O-])C1c1ccccc1C(F)(F)F (centres unmarked) [BayK 8644]
- increase in total newborn cell number versus control [1, 8]: 2.5 fold
- neuronal fraction of newborn cells [1, 8]: 120±11 % of control
- neuronal fraction of newborn cells ([1]; rats, 1 mg/kg for 1 week, 30 days after treatment, listed as BayK): 120%±11%
- total BrdU+ cells per hippocampus (subgranular zone and hilus) ([1]; rats, 1 mg/kg for 1 week, 30 days after treatment, unbiased stereology): 19633±2677
- tolerability [2]: well-tolerated

Structure (SMILES): NC(CCCP(=O)(O)O)C(=O)O [D-AP5]
- neurogenesis in the basal (Na) condition [3]: significant inhibition
- excitation-induced neurogenesis ([3]; depolarization or glutamate, D-AP5 50 μM): blocked
- neurogenesis enhancement by excitation (adult hippocampal NPCs; delayed application of D-AP5 on day 5, n=7): 2.76±0.95 fold
- excitation-induced neurogenesis (adult hippocampal NPCs; fixed substrate, K+ depolarization, nifedipine 10 μM, D-AP5 50 μM): inhibited
- basal neurogenesis (adult hippocampal NPCs; fixed substrate, no stimulation, D-AP5 50 μM): inhibited

Structure (SMILES): COC(=O)c1c(C)[nH]c(C)c1C(=O)c1ccccc1Cc1ccccc1 [FPL 64176]
- neurogenesis with the agonist as stimulus (adult hippocampal NPCs; fixed substrate): enhancement of neurogenesis
- neurogenesis after three 5 min pulses (adult hippocampal NPCs; fixed substrate, pulses on days 1, 3 and 5): enhanced neurogenesis to a similar extent as continuous excitatory stimulation; also recorded: effective
- fraction of newborn (BrdU+) cells assuming the neuronal phenotype (Dcx+) ([1]; adult rats, 4 mg/kg daily for 1 week): relative increase
- overt dystonias [4]: did not lead to overt dystonias
- treated animals that died shortly before sacrifice ([4]; 7th experimental day): two

Structure (SMILES): O=c1[nH]c(=O)n([C@H]2C[C@H](O)[C@@H](CO)O2)cc1F [FUDR, 5-fluoro-2′-deoxyuridine]
- cells killed (adult hippocampal NPCs; [9]): more than 95%
- neurogenic effects of excitation (adult hippocampal NPCs; [9]): abolished

Structure (SMILES): CN[C@H](CC(=O)O)C(=O)O [NMDA]
- neurogenesis with the agonist as stimulus (adult hippocampal NPCs; fixed substrate): significant increase

Structure (SMILES): NC1=N[C@H](O)[C@H]2[C@H]3O[C@]4(O)O[C@@H]([C@@H](O)[C@@]2(N1)[C@@H]4O)[C@]3(O)CO [TTX, Tetrodotoxin]
- inward Na+ current evoked with a step from -70 mV to -10 mV [5]: reversibly blocked

Structure (SMILES): CN1C(=O)CN=C(c2ccccc2)c2cc(Cl)ccc21 [diazepam]
- GFAP/BrdU double-positive cells (astroglial phenotype) ([1]; rat, in vivo, 4 mg/kg): 58.5%
- NG2/BrdU double-positive cells (oligodendroglial phenotype) ([1]; rat, in vivo, 4 mg/kg): 4.7%
- fraction of newborn (BrdU+) cells assuming the neuronal phenotype (Dcx+) ([1]; rat, in vivo, 4 mg/kg): significant reduction

Structure (SMILES): N[C@@H](CCC(=O)O)C(=O)O [glutamate]
- mean MAP2ab intensity in the resulting neuronal progeny [3]: no effect
- fraction of NPCs becoming neurons (MAP2ab+) ([3]; 50 μM glutamate from day 1): increase; also recorded: increased neurogenesis
- fraction of NPCs becoming neurons (MAP2ab+) ([3]; 50 μM glutamate from day 1, listed as Glu): promoted neurogenesis
- fraction of adult NPCs that received functional excitatory synaptic connections (mEPSCs) [6]: increase
- cells showing an increase in intracellular Ca2+ [7]: 44 of 73

Structure (SMILES): COC(=O)C1=C(C)NC(C)=C(C(=O)OC)C1c1ccccc1[N+](=O)[O-] [nifedipine]
- GFAP/BrdU double-positive cells (astroglial phenotype) [1, 10]: 58.8%
- NG2/BrdU double-positive cells (oligodendroglial phenotype) [1, 10]: 3.5%
